Where “and” joins values, the source holds several entries; their conditions need not be identical. Equal values may be shown once. Where a name gives a salt, the structure may show the parent alone. Read-outs that look alike come from different tables or passages of the source.
Legend:
[1] = cited from earlier work
[2] = by treatment group
[3] = Safety: treatment-emergent adverse events, vital signs and laboratory tests in the phase 1 study; assay type: in vivo, human
Procedure: The safety analysis population consisted of all randomized subjects who received quizartinib or at least one dose of lansoprazole. Safety was assessed with physical examinations, vital signs, AE evaluations, 12-lead electrocardiograms (ECGs), and clinical laboratory tests (hematology, chemistry, and urinalysis). AEs were evaluated during the study according to the Medical Dictionary for Regulatory Activities version 17.1 and assessed for severity and relation to study drugs. Laboratory results were summarized based on National Cancer Institute Common Terminology Criteria for Adverse Events version 4.03.

[4] = Phase 1 drug–drug interaction study: plasma PK of quizartinib, AC886 and quizartinib + AC886 after a single 30-mg quizartinib tablet alone or with lansoprazole; assay type: in vivo, human; conditions: for Vd/F: read-out: Vz/F (CV%), geometric mean; for CL/F (CV%), geometric mean: quizartinib
Procedure: The tolerability and safety of quizartinib administered alone and in combination with lansoprazole were also assessed. The study was conducted in compliance with the Declaration of Helsinki and the International Conference on Harmonisation (ICH)/Good Clinical Practice as well as all applicable state, local, and federal regulations. The study protocol, amendments, and informed consent forms were reviewed and approved by the institutional review board. All subjects provided written informed consent before any study-related procedure took place.
Subjects were randomized into two groups: lansoprazole and quizartinib (lansoprazole + quizartinib; test group) and quizartinib alone (reference group). On days 1–5, subjects in the test group were administered 60-mg lansoprazole (2 × 30 mg oral delayed-released capsule) once daily in the morning before food. […] All study drugs were taken with approximately 240 mL of water.
Plasma concentrations were determined by BASi (West Lafayette, IN, USA) using a validated analytical method.
Samples were injected into an LC–MS/MS system (LC: Nexera System, Shimadzu Scientific Instruments, Columbia, MD, USA; MS: API 5500™, SCIEX, Framingham, MA, USA) using a PFP column (Phenomenex/Kinetex, Torrance, CA, USA) with a gradient ammonium formate/formic acid/acetonitrile/water mobile phase. […] For AC886 at the LLOQ, precision was 6.0% CV and accuracy was 0.2% bias across 14 runs; accuracy ranged from −7.9 to 10.6% bias within runs. For AC886 at the upper limit of quantitation, precision was 2.9% CV and accuracy was −1.4% bias across 14 runs; accuracy ranged from −6.4 to 4.6% bias within runs.
A sample size of 25 subjects per group was determined to yield a ≤ 10% relative standard error of the mean, based on the observed intersubject coefficient of variation (CV%) of approximately 60% for PK parameters in a previous drug–drug interaction study in healthy volunteers (data on file, Daiichi Sankyo, Inc., Basking Ridge, NJ, USA). Up to 32 subjects/group were planned to account for possible premature withdrawal. Descriptive statistics were used to summarize plasma concentrations and PK parameters of the PK analysis population. Safety parameters were summarized in the safety analysis population using descriptive statistics. All descriptive statistics were calculated using SAS® software version 9.3 (SAS Institute Inc., Cary, NC, USA). […] PK parameters were natural logarithm (ln)-transformed prior to analyses. The ln-transformed PK results were back-transformed by exponentiation to obtain the geometric least squares mean (LSM) for each treatment and calculate geometric LSM ratios for pairwise comparisons.

[5] = In vitro solubility assessment; assay type: physicochemical
[6] = test system: gastric acid secretion; set-up: method as in earlier work; conditions: cited from earlier work
[7] = day 5, up to 8 h after quizartinib
[8] = all patients, quizartinib with/without lansoprazole, N = 63
[9] = all subjects, quizartinib with or without lansoprazole
[10] = by treatment group, safety population
[11] = healthy subjects, single 30-mg quizartinib
[12] = quizartinib in plasma, single 30-mg quizartinib alone, n = 30

CC(C)(C)c1cc(NC(=O)Nc2ccc(-c3cn4c(n3)sc3cc(OCCN5CCOCC5)ccc34)cc2)no1 [Quizartinib, quizartinib]
half-life ([1]; estimated in AML patients, ref data on file, Daiichi Sankyo Inc., Basking Ridge, NJ, USA): 73 h
Time to maximum concentrations ([1]; healthy subjects and patients with AML, range 2–8 h): 4 h
Subjects with maximum QTcF value > 480 ms [2]: None
Maximum QTcF change from baseline in most subjects [2, 7]: ≤ 30 ms
Maximum QTcF value in most subjects [2, 7]: ≤ 450 ms
TEAE: Back pain [3, 8]: 2 (3.2) n (%)
TEAE: Constipation [3, 8]: 2 (3.2) n (%)
TEAE: Dermatitis [3, 8]: 1 (1.6) n (%)
TEAE: Diarrhea [3, 8]: 1 (1.6) n (%)
TEAE: Dizziness [3, 8]: 1 (1.6) n (%)
TEAE: Fatigue [3, 8]: 2 (3.2) n (%)
TEAE: Headache [3, 8]: 3 (4.8) n (%)
TEAE: Hypoacusis [3, 8]: 1 (1.6) n (%)
TEAE: Hypoesthesia [3, 8]: 1 (1.6) n (%)
TEAE: Muscle tightness [3, 8]: 2 (3.2) n (%)
TEAE: Musculoskeletal pain [3, 8]: 1 (1.6) n (%)
TEAE: Musculoskeletal stiffness [3, 8]: 1 (1.6) n (%)
TEAE: Nasal congestion [3, 8]: 1 (1.6) n (%)
TEAE: Nausea [3, 8]: 2 (3.2) n (%)
TEAE: Phlebotomy [3, 8]: 1 (1.6) n (%)
TEAE: Sneezing [3, 8]: 1 (1.6) n (%)
TEAE: Throat irritation [3, 8]: 1 (1.6) n (%)
TEAE: Upper respiratory tract infection [3, 8]: 5 (7.9) n (%)
TEAE: Vessel puncture site pain [3, 8]: 1 (1.6) n (%)
Abnormalities in vital signs, hematology, or clinical chemistry [3, 9]: No significant abnormalities
Severe or serious TEAEs [3, 9]: no severe or serious TEAEs
Subjects with TEAEs of mild severity among the 20 subjects who experienced a TEAE [3, 9]: 95%
Subjects with at least one quizartinib-related TEAE (nausea, diarrhea, dizziness, headache, fatigue) [3, 9]: Three
Subjects with at least one treatment-emergent AE (TEAE) following quizartinib treatment on day 5 ([3]; all subjects, quizartinib with or without lansoprazole, N = 63): 31.7%
TEAE: Back pain [3, 10]: 1 (3.3) n (%)
TEAE: Constipation [3, 10]: 1 (3.3) n (%)
TEAE: Dermatitis [3, 10]: 0 n (%)
TEAE: Diarrhea [3, 10]: 1 (3.3) n (%)
TEAE: Dizziness [3, 10]: 0 n (%)
TEAE: Fatigue [3, 10]: 1 (3.3) n (%)
TEAE: Headache [3, 10]: 3 (10.0) n (%)
TEAE: Hypoacusis [3, 10]: 0 n (%)
TEAE: Hypoesthesia [3, 10]: 0 n (%)
TEAE: Muscle tightness [3, 10]: 2 (6.7) n (%)
TEAE: Musculoskeletal pain [3, 10]: 1 (3.3) n (%)
TEAE: Musculoskeletal stiffness [3, 10]: 1 (3.3) n (%)
TEAE: Nasal congestion [3, 10]: 1 (3.3) n (%)
TEAE: Nausea [3, 10]: 1 (3.3) n (%)
TEAE: Phlebotomy [3, 10]: 0 n (%)
TEAE: Sneezing [3, 10]: 1 (3.3) n (%)
TEAE: Throat irritation [3, 10]: 1 (3.3) n (%)
TEAE: Upper respiratory tract infection [3, 10]: 2 (6.7) n (%)
TEAE: Vessel puncture site pain [3, 10]: 0 n (%)
TEAE: Dysmenorrhea ([3]; by treatment group, safety population, after database lock one event was found to be pre-existing): 1 (3.3) n (%)
Subjects with at least one treatment-emergent AE (TEAE) following quizartinib treatment on day 5 ([3]; by treatment group, quizartinib alone n = 30, lansoprazole + quizartinib n = 33): 30.0%
Overall safety and tolerability ([3]; healthy subjects, with or without lansoprazole): generally safe and well tolerated
Decrease in AUCinf (geometric LSM) for lansoprazole + quizartinib versus quizartinib alone [4, 11]: 4.7%
Decrease in AUClast (geometric LSM) for lansoprazole + quizartinib versus quizartinib alone [4, 11]: 6.0%
Decrease in Cmax (geometric LSM) for lansoprazole + quizartinib versus quizartinib alone [4, 11]: 13.9%
AUC(0-inf) ([4]; human, plasma, oral, 30 mg, quizartinib in plasma, quizartinib alone, n = 30, read-out: AUCinf, geometric LS mean (ANOVA)): 8660 ng·h/mL
AUC(0-t) ([4]; human, plasma, oral, 30 mg, quizartinib in plasma, quizartinib alone, n = 30, read-out: AUClast, geometric LS mean (ANOVA)): 8330 ng·h/mL
AUC(0-inf) ([4]; human, plasma, oral, 30 mg, quizartinib in plasma, single 30-mg quizartinib alone, n = 30, read-out: AUCinf (CV%), geometric mean): 8660 ng·h/mL
AUC(0-t) ([4]; human, plasma, oral, 30 mg, quizartinib in plasma, single 30-mg quizartinib alone, n = 30, read-out: AUClast (CV%), geometric mean): 8330 ng·h/mL
Vd/F ([4]; human, plasma, oral, 30 mg): 431 L
AUC(0-inf) ([4]; human, plasma, oral, quizartinib in plasma, lansoprazole 60 mg once daily + single 30-mg quizartinib, n = 31, read-out: AUCinf (CV%), geometric mean): 8260 ng·h/mL
AUC(0-t) ([4]; human, plasma, oral, quizartinib in plasma, lansoprazole 60 mg once daily + single 30-mg quizartinib, n = 32, read-out: AUClast (CV%), geometric mean): 7830 ng·h/mL
AUC(0-inf) ([4]; human, plasma, oral, quizartinib in plasma, lansoprazole + quizartinib, n = 31, read-out: AUCinf, geometric LS mean (ANOVA)): 8260 ng·h/mL
AUC(0-t) ([4]; human, plasma, oral, quizartinib in plasma, lansoprazole + quizartinib, n = 32, read-out: AUClast, geometric LS mean (ANOVA)): 7830 ng·h/mL
half-life ([4]; human, plasma, oral, read-out: Mean T1/2 (SD), arithmetic mean (converted)): 107 h
Tmax ([4]; human, plasma, oral, read-out: Median Tmax (min, max)): 3.5 h
Vd/F ([4]; human, plasma, oral): 479 L
Median Tmax (min, max) ([4]; quizartinib in plasma, healthy subjects, single 30-mg quizartinib tablet alone, fasted, n = 30): 4.0 (2.0, 8.0) h
Cmax, geometric LS mean (ANOVA) ([4]; quizartinib in plasma, quizartinib alone, n = 30): 104.8 ng/mL
Cmax (CV%), geometric mean [4, 12]: 105 (16.3) ng/mL
Mean T1/2 (SD), arithmetic mean [4, 12]: 102.2 (29.0) h
CL/F (CV%), geometric mean ([4]; lansoprazole 60 mg once daily + single 30-mg quizartinib, n = 31): 3.2 L/h and 3.2 (46.4)^b L/h
CL/F (CV%), geometric mean ([4]; single 30-mg quizartinib alone, n = 30): 3.1 L/h and 3.1 (37.4) L/h

CC(C)(C)c1cc(NC(=O)Nc2ccc(-c3cn4c(n3)sc3cc(OCCN5CCOCC5)ccc34)cc2)no1 [quizartinib dihydrochloride]
pH dependence of solubility [5]: pH dependent
solubility ([5]; at physiological pH in the intestine): < 0.4 µg/mL

Cc1c(OCC(F)(F)F)ccnc1C[S+]([O-])c1nc2ccccc2[nH]1 (centres unmarked) [Lansoprazole, lansoprazole]
Duration of inhibitory effect on gastric acid secretion [6]: over 24 h
Elimination half-life [6]: less than 2 h
Mean 24-h intragastric pH ([6]; lansoprazole 30 mg once daily for 5 days, baseline 2.1): 4.9

Source: paper PMC6768889 (Cancer Chemotherapy and Pharmacology, 2019)
